The structures appear in SMILES notation. Entries after “also recorded” stand apart in the source; their conditions may differ. Structures can show the parent of a compound that is named as a salt.

Test [1] is described as follows: GSH levels in organs of immunized mice after feeding. To be noted: fed in the drinking water; data not shown. Format: in vivo. The source says:
In order further to study whether GSH deprivation can also influence the differentiation and pathogenicity of autoreactive T cells in vivo, mice were fed with DMF or L-BSO in the drinking water, and the control group only with drinking water. Active EAE induction was effected on day 10 with PLP peptide in complete Freund's adjuvant (CFA) and pertussis toxin. The mice were examined daily regarding the course of the artificially triggered disease. Through the administration of L-BSO or DMF, the GSH levels in lymphoid organs and in the brain of immunized mice could be lowered (not shown). […] 6 days after immunization, the draining lymph nodes of the mice were analyzed. For this, the CD4^+ T cells were isolated and the cytokine production of PLP-specific T cells measured using ELISPOT after in vitro stimulation. […] The pharmaceutical substances to be tested can also be analyzed ex vivo for their potential to deplete GSH. For this, after treatment of experimental mice, small tissue pieces are removed from the respective organs and placed in about 1 ml of 1% SSA. The tissue piece in SSA is homogenized using an ultrasonic probe. The further GSH and protein determination is effected according to the procedure described for APC and DC. Comparison with the GSH content of control cells or control tissue indicates the GSH-lowering action of the pharmaceutical substance to be tested.

The subject of test [2] is experimental autoimmune encephalomyelitis (EAE). As to the kind of experiment: EAE after transfer of in vitro generated PLP-specific T cells into naive SJL mice. Format: in vivo. The note with it: 10^7 lymphocytes injected into naive SJL mice. On the procedure: (§1) Spleen and lymph node CD4^+ T cells were stimulated with PLP (proteolipid protein) peptide 139-151 (10 μg/ml) and stimulated for four days with irradiated SJL-APC in the presence or absence of L-BSO (0.5 mM, Sigma), expanded for three to four days and then restimulated for cytokine production (proteolipid protein is the commonest myelin protein in the central nervous system and plays an important part as an autoantigen in the onset of multiple sclerosis). Next, 10^7 sham (control) or L-BSO treated T cells were injected intraperitoneally into naive SJL mice and the EAE developing as a result was observed. […] Half of the group was fed daily for 14 days with DMF 0.3 mg/ml (Fluka) or L-BSO 0.15 mg/ml in the drinking water. For the cytokine analysis of PLP-specific T cells, the draining lymph nodes of the SJL mice were removed 6 days after the immunization and CD4^+ T cells antigen-specifically analyzed (ELISPOT). For this, ELISPOT plates (Millipore Corporation) were coated with anti-IFN-γ or anti-IL-4 antibodies overnight at 4° C., blocked after 12 hrs with PBS/10% FCS and, after the solution had been poured off, the isolated T lymphocytes were incubated with APC and medium alone or in the presence of PLP peptide. After the incubation time, the cells were poured off, and the plates washed with PBS/Tween and incubated with biotin-conjugated secondary antibodies. After further washing procedures and incubation with streptavidin-alkaline phosphatase (Boehringer), the plates were incubated with developer solution. After washing with H2O, the number of spots was determined in the ELISPOT reader (Biosys).
Since the induction of the TH2 phenotype could adversely affect the ability of the CD4^+ T cells to induce autoimmune diseases in immunocompetent mice, it was concluded that GSH^lowIL12^−DC2 could weaken the ability of autoreactive CD4^+ T cells to induce the disease. For the next experiments, lymphocytes from SJL mice were stimulated twice with PLP peptide, either in the presence or absence of L-BSO, DMF or MMF. […]

The test system of the next test is IL-12. Kind of test: IL-12 production by DC, ELISA of culture supernatants. Format: cell-based, mouse. To be noted: after stimulation with LPS. On the procedure:
IL-4, IL-10, IL-12 and interferon-γ were determined using the ELISA (enzyme linked immunosorbent assay) set or with the use of individual components from BD BioSciences. IL-23 in the supernatant was determined using the ELISA set (eBioscience). For intracytoplasmic cytokine analyses, the T cells were restimulated with PMA/ionomycin or with APC and peptide in the presence of brefeldin A, then fixed and permeabilized and stained. For the surface staining, anti-CD4 or KJ1-26 antibodies were used; the cytokine antibodies (PE labeled) were all obtained from BD Pharmingen.
As antigen presenting cells (APC), T cell depleted spleen cells from syngenic mice were used. Dendritic cells (DC) which were obtained from bone marrow (BMDC) and cultured with GM-CSF were used for the relevant experiments on day 7 of culturing. For the experiment, in each case an equal number of APC were cultured either with the medium alone, with L-BSO (C8H18N2O3S, 0.5 mM), dimethyl sulfoxide DMSO(C2H6OS), dimethyl fumarate DMF (C6H8O4, dissolved in DMSO, 70 μM), or calcium monomethyl fumarate (MMF; CaC10H10O8, 200 μM). All substances except for MMF (Fumapharm) were purchased from Sigma-Aldrich. At the respective stated times (see below) the cells were either analyzed directly for their GSH content, […] 055.B5 (Sigma-Aldrich) or CpG-DNA 1668 (MWG Biotech) and IL-4 (Stratmann). In order to raise the GSH level again, 1 mM GSH-OEt (C12H21N3O6S; Sigma-Aldrich) or 1 mM NAC (Sigma-Aldrich) was added.
On the technique in general: In an ELISA, binding on a coated surface is turned into a signal by an enzyme label.

For test [3], the system named is PLP-specific CD4+ T cells. Kind of test: ELISPOT cytokine analysis of PLP-specific CD4+ T cells from draining lymph nodes of fed mice. The format is in vivo, SJL mice. To be noted: 6 days after immunization, ELISPOT IL-4 / IFN-γ. On the procedure:
Spleen and lymph node CD4^+ T cells were stimulated with PLP (proteolipid protein) peptide 139-151 (10 μg/ml) and stimulated for four days with irradiated SJL-APC in the presence or absence of L-BSO (0.5 mM, Sigma), expanded for three to four days and then restimulated for cytokine production (proteolipid protein is the commonest myelin protein in the central nervous system and plays an important part as an autoantigen in the onset of multiple sclerosis). Next, 10^7 sham (control) or L-BSO treated T cells were injected intraperitoneally into naive SJL mice and the EAE developing as a result was observed. […] For the cytokine analysis of PLP-specific T cells, the draining lymph nodes of the SJL mice were removed 6 days after the immunization and CD4^+ T cells antigen-specifically analyzed (ELISPOT). […] After washing with H2O, the number of spots was determined in the ELISPOT reader (Biosys).
In order further to study whether GSH deprivation can also influence the differentiation and pathogenicity of autoreactive T cells in vivo, mice were fed with DMF or L-BSO in the drinking water, and the control group only with drinking water. […] 6 days after immunization, the draining lymph nodes of the mice were analyzed. For this, the CD4^+ T cells were isolated and the cytokine production of PLP-specific T cells measured using ELISPOT after in vitro stimulation.

For test [4], the system named is experimental autoimmune encephalomyelitis (EAE). Kind of test: Actively induced EAE in SJL mice, substance in the drinking water. Format: in vivo. To be noted: for course/severity of actively induced EAE: DMF 0.3 mg/ml or L-BSO 0.15 mg/ml in the drinking water; for survival of mice with actively induced EAE: substance in the drinking water. On the procedure:
as §1
In order further to study whether GSH deprivation can also influence the differentiation and pathogenicity of autoreactive T cells in vivo, mice were fed with DMF or L-BSO in the drinking water, and the control group only with drinking water. Active EAE induction was effected on day 10 with PLP peptide in complete Freund's adjuvant (CFA) and pertussis toxin. The mice were examined daily regarding the course of the artificially triggered disease. Through the administration of L-BSO or DMF, the GSH levels in lymphoid organs and in the brain of immunized mice could be lowered (not shown). […] 6 days after immunization, the draining lymph nodes of the mice were analyzed. For this, the CD4^+ T cells were isolated and the cytokine production of PLP-specific T cells measured using ELISPOT after in vitro stimulation.

On to `COC(=O)/C=C/C(=O)OC` [DMF, dimethyl fumarate], for which the “GSH levels in lymphoid organs and in the brain of immunized mice” value in test [1] is given as “lowered”. Also, the “ability of T cells generated in the presence of the substance to induce EAE” value (shortened to “ability of T cells generated”) in test [2] is reported as “not able to trigger severe encephalomyelitis”. The “IL-12 production by DC” value in the test with IL-12 is “strong suppression of IL-12 production; also recorded: markedly less; also recorded: markedly decreased capacity to produce IL-12”. Besides, in test [3], the “cytokine pattern of PLP-specific CD4+ T cells” value was “TH2-like pattern”. Further, in test [4], the “course/severity of actively induced EAE” value was “markedly milder EAE; also recorded: protects actively immunized mice against the onset of severe encephalomyelitis” and the “survival of mice with actively induced EAE” value is given as “all mice survived”.

Turning to `CCCCS(=N)(=O)CCC(N)C(=O)O` [L-BSO, L-buthionine sulfoximine], in test [1], the “GSH levels in lymphoid organs and in the brain of immunized mice” value is listed as “lowered”. Moreover, the “ability of T cells generated” value in test [2] is listed as “scarcely still capable of inducing EAE in vivo”. Moreover, the “IL-12 production by DC” value with IL-12 is “strong suppression of IL-12 production; also recorded: markedly decreased capacity to produce IL-12”. The “cytokine pattern of PLP-specific CD4+ T cells” value in test [3] is listed as “TH2-like pattern”. Moreover, in test [4], the “course/severity of actively induced EAE” value is given as “markedly milder EAE; also recorded: markedly improved; also recorded: protects actively immunized mice against the onset of severe encephalomyelitis” and the “survival of mice with actively induced EAE” value is listed as “all mice survived”.

Take `COC(=O)/C=C/C(=O)[O-].[Ca+]` [MMF, calcium monomethyl fumarate]: the “ability of T cells generated” value in test [2] is “not able to trigger severe encephalomyelitis”. In addition, in the test with IL-12, the “IL-12 production by DC” value is given as “strong suppression of IL-12 production; also recorded: markedly decreased capacity to produce IL-12”.

Source of the values: US8618178B2, “Method and substances for treating T-cell mediated autoimmune diseases” (Eberhard-Karls-Universitaet Tuebingen Universitaetsklinikum, priority 2006, dated 2013).
